Patent US6914049B2, “IGF-binding protein-derived peptide or small molecule” (Bioexpertise, LLC, priority 2001, dated 2005)

Legend:
[1] = tested on: HEK293 cells; test: Caspase-3 apoptosis assay on nutritionally stressed HEK293 cells (Examples 1-2); type: cell-based, human; conditions: FIG. 4A/4B
Method: Human embryonal kidney 293 (HEK293) cells were grown in Dulbecco's Modified Eagle Medium (D-MEM) supplemented with fetal calf serum at 2%, 4%, 6%, or 8%. When the cells reached 80-85% confluency (cell titer approximately 2.1×10^6 cells per plate), 5 μg of IGFBP-3 or buffer control was added to each plate. The cells were incubated at 37° C. overnight. The next day the medium was removed and the cells were rinsed with trypsin-EDTA (0.25% trypsin, 1 mM EDTA) plus 1× phosphate buffered saline. The cells were centrifuged and the supernatant was removed. ApoAlert caspase-3 assay kit from Clontech Inc (Palo Alto, Calif.) was used to measure apoptosis. The cells were resuspended in 50 μl of chilled cell lysis buffer and incubated on ice for 10 minutes. The resulting cell, lysates were centrifuged at 14000 rpm in a Beckman microcentrifuge for 3 minutes at 4 C. The supernatant was transferred to new tubes and 50 μl of 2× reaction buffer/DTT plus 5 μl of 1 mM caspase-3 substrate was added to each tube. After incubating at 37 C. for 1 hour in a water bath, the samples were read at 405 nm in a microplate reader.
Peptides derived from IGFBP-3 were tested for pro-apoptotic activity essentially as described in Example 1.
The peptides tested are described in Table 1 (peptides marked with an asterisk include a hexahistidine tag).

[2] = IMAC of IGFBP-3 on Ni++ and Zn++ resins; type: binding
Method: Panels a and b (FIGS. 5A and 5B) show SDS-PAGE analysis of samples from Ni^++ and Zn^++ IMAC, respectively. FT indicates column flowthrough; W indicates wash; 50 indicates 50 mM imidazole wash; 60 indicates 60 mM imidazole wash; E indicates 1 M imidazole elution buffer; S indicates 1 M EDTA stripping buffer.
This previously unknown property of IGFBP-3 is intriguing and has a number of practical implications among which the ability to capture products using immobilized metal affinity (IMAC) resins leads to a number of potential applications in therapeutic, high-throughput discovery, and other research arenas.

[3] = Binding of IGFBP-3 to IMAC (NTA) resin charged with metal; conditions: approx. 1 mg loaded
Method: (§1) Binding of IGFBP-3 to immobilized metal affinity chromatography (IMAC) resin charged with various metals was measured. Approximately 1 mg of IGFBP-3 was loaded onto each column (NTA resin, Sigma Chemical Co., St. Louis, Mo.). The “percentage bound” was calculated by measuring OD280 of load, flow-through, wash and eluate at 60 mM imidazole. Typical recoveries were 85-95%.

[4] = Binding of IGFBP-3 to IMAC (NTA) resin without metal; conditions: metal none; approx. 1 mg loaded
Method: as §1

[5] = tested on: HEK293 cells; test: Co-apoptotic activity of IGFBP-3 and paclitaxel, caspase-3; type: cell-based, human; conditions: 200 ng/ml antibody, 30 minutes pretreatment; FIG. 8B
Method: Co-aptotic activity of IGFBP-3 in combination with paclitaxel was measured in the HEK293 assay described in Example 1. HEK293 cells were grown in DMEM plus 8% FCS, then incubated in 0.3 ng/ml of paclitaxel (TAXOL®), 50 ng/ml of IGFBP-3, or a combination of the two. Some cultures were pretreated for 30 minutes with 200 ng/ml of anti-beta-1-integrin antibody (Pharmingen). Caspase-3 was assayed using the ApoAlert caspase-3 kit from Clontech Inc.

[6] = tested on: MDA-MB-231 cells; test: Co-apoptotic activity of IGFBP-3 with cisplatin; type: cell-based; conditions: MDA-MB-231 cells and cisplatin; FIG. 8C
[7] = tested on: HEK 293 cells; test: Co-apoptotic activity of MBD peptides and paclitaxel, caspase-3; type: cell-based, human; conditions: normalized to MBD2 = 100 on a molar basis; peptide 50 ng/ml, 0.3 ng/ml paclitaxel, 8 hours
Method: Peptides (50 ng/ml) were added to 80% confluent HEK 293 cells grown in DMEM supplemented with 0.3 ng/ml paclitaxel concurrent with peptide. Caspase-3 activity was measured in cell extracts 8 hours post-addition.
(§2) Apoptotic activity is expressed in arbitrary caspase-3 units normalized to MBD2 on a molar basis (MBD2 activity was defined as 100 units (avg. of 3 experiments); “nd” indicates “not done”; “ps” indicates phosphoserine. Metal-binding is expressed as a percentage of loaded peptide bound to a Ni-NTA resin; approximately 1-1.5 mg of peptide were loaded on the column. Cell uptake was determined using genetic fusions to GFP as described in Example 9.

[8] = Metal-binding of peptides to Ni-NTA resin; conditions: percentage of loaded peptide bound to Ni-NTA resin; 1-1.5 mg loaded
Method: as §2

[9] = tested on: HEK293 cells; test: Co-apoptotic activity with paclitaxel in presence of plasma proteins; type: cell-based, human; conditions: 50 ng/ml, 0.3 ng/ml paclitaxel, eight hours
Method: Co-apoptotic activity of MBD peptides or IGFBP-3 with paclitaxel was tested in the presence or absence of two plasma proteins; fibronectin and fibrinogen. MBD peptides or IGFBP-3, (50 ng/ml), 0.3 ng/ml paclitaxel, and plasma proteins (200 ng/ml) were added to 80% confluent HEK293 cells grown in DMEM essentially as described in Example 8. Caspase-3 was measured after an eight hour incubation.
Apoptotic activity was calculated in arbitrary caspase-3 units normalized to MBD2 (MBD2 activity was defined as 100 units) Results are summarized in Table 4 (average of 3 experiments).

[10] = tested on: MA-16C mammary adenocarcinoma tumors; test: MA-16C mammary adenocarcinoma tumor implants; type: in vivo, female C3H mice; conditions: for Lung Metastases: animals with metastases/animals
Method: Fragments of MA-16C mammary adenocarcinoma tumors were implanted subcutaneously into female C3H mice (8-11 animals per group). The animals were treated with vehicle alone, IGFBP-3 (4 mg/kg/day for 21 days by subcutaneous injection), doxorubicin (2 mg/kg on days 1 and 8 by intravenous injection), or IGFBP-3 plus doxorubicin. A separate study was performed where the animals were treated with vehicle alone, 5-fluorouracil (10 mg/kg on days 1-5 by intraperitoneal injection), or IGFBP-3 plus 5-fluorouracil. Tumor size was measured at day 18, and the mice were sacrificed at day 21, and the implanted tumors were removed for determination of caspase-3 activity (a marker of apoptosis-only performed for DOX groups).

[11] = tested on: HEK 293 cells; test: IGF-independence of apoptosis stimulation, caspase-3; type: cell-based, human
Method: HEK 293 cells were cultured under stressed conditions (low serum or in the presence of paclitaxel) with and without IGFBP-3 (50 ng/ml) or MBD2 (50 ng/ml). Apoptosis was assayed using the caspase-3 assay as described in Example 1.

[12] = tested on: bax-alpha expression in HEK 293 cells; test: Bax-alpha and bcl-2 mRNA expression; type: cell-based, human; conditions: paclitaxel 0.3 ng/ml, 50 ng/ml; FIG. 14A
Method: HEK 293 cells were cultured as described in Example 1, with the addition paclitaxel (0.3 ng/ml) and either IGFBP-3 or MBD2 at 50 ng/ml. Bax-alpha and bcl-2 mRNA and caspase 3 activity were assayed.

[13] = Solubility / concentration in phosphate buffered saline; type: physicochemical; conditions: PBS
From the text: Formulation: The central domain of IGFBP-3 is exquisitely sensitive to proteolysis. Due to the limited, solubility of IGFBP-3, its low stability and pronounced tendency to aggregate, the development of suitable formulations and convenient routes of delivery for intact IGFBP-3 is challenging.

IGFBP-3: full-length, 264 aa, IGFBP-3 (insulin-like growth factor binding protein-3)
pro-apoptotic activity [1]: has pro-apoptotic activity
binding to IMAC resins ([2]; Ni^++ and Zn^++ IMAC, SDS-PAGE): bound both IMAC resins effectively
imidazole concentration that elutes from the resin ([2]; immobilized nickel and zinc): 60 mM
% IGFBP-3 bound ([3]; Ca^++): 0.0%
% IGFBP-3 bound ([3]; Co^++): 95.1%
% IGFBP-3 bound ([3]; Fe^2+): 46.6%
% IGFBP-3 bound ([3]; Fe^3+): 55.1%
% IGFBP-3 bound ([3]; Mg^++): 38.8%
% IGFBP-3 bound ([3]; Mn^++): 20.1%
% IGFBP-3 bound ([3]; Ni^++): 97.6%
% IGFBP-3 bound ([3]; Zn^++): 59.5%
% IGFBP-3 bound [4]: 0.0%
co-apoptotic activity after anti-beta-1-integrin antibody pretreatment [5]: greatly inhibits the co-apoptotic activity
co-apoptotic activity [6]: failed to demonstrate any co-apoptotic activity
Apoptotic Activity [7]: 585 arbitrary caspase-3 units
Metal-binding [8]: 93 percentage
co-apoptotic activity with Fibrinogen ([9]; Fibrinogen 200 ng/ml): 1.1 arbitrary caspase-3 units
co-apoptotic activity with Fibronectin ([9]; Fibronectin 200 ng/ml): 3.5 arbitrary caspase-3 units
co-apoptotic activity, plasma protein none ([9]; no plasma protein): 100.0 arbitrary caspase-3 units
Tumor Weight ([10]; 5FU study, 5-fluorouracil 10 mg/kg ip days 1-5, IGFBP-3 4 mg/kg/day sc): 3147 + 952 mg
Lung Metastases ([10]; 5FU study): 1/7
Tumor Weight ([10]; DOX study, IGFBP-3 4 mg/kg/day sc 21 days, doxorubicin 2 mg/kg iv days 1 and 8): 2632 + 554 mg
Lung Metastases ([10]; DOX study): 1/7
Caspase-3 ([10]; DOX study, tumors removed at day 21): 3.79 ± 3.25
IGF dependence of pro-apoptotic activity ([11]; 0.3 ng/ml paclitaxel, alone or with Y60L-IGF-I, FIG. 11C): independent of the presence of IGF
pro-apoptotic activity under stressed conditions ([11]; low serum or paclitaxel, 50 ng/ml, FIGS. 11A, 11B): nearly identical
bax-alpha expression [12]: stimulates bax-alpha expression
maximum solubility in phosphate buffered saline [13]: 7000 µg/mL
